{
  "source": "patent US20150038545A1",
  "about": "“HYDROXYPHENYL PYRROLE COMPOUNDS CONTAINING AN HYDROXAMIC ACID AS HDAC INHIBITORS AND MEDICINAL APPLICATIONS THEREOF” (UNIVERSIDAD DEL PAÍS VASCO, priority 2011, published 2015)",
  "key": {"Human HDAC7": {"biological_target": "T1, Human HDAC7 (Homo sapiens, UniProt Q8WUI4)", "T1 construct": "Amino acids 518-end with N-terminal GST tag, MW=78 kDa; GST (N); purchased BioMol, Hamburg, Germany", "T1 sequence (Q8WUI4 518-952 limits assumed)": "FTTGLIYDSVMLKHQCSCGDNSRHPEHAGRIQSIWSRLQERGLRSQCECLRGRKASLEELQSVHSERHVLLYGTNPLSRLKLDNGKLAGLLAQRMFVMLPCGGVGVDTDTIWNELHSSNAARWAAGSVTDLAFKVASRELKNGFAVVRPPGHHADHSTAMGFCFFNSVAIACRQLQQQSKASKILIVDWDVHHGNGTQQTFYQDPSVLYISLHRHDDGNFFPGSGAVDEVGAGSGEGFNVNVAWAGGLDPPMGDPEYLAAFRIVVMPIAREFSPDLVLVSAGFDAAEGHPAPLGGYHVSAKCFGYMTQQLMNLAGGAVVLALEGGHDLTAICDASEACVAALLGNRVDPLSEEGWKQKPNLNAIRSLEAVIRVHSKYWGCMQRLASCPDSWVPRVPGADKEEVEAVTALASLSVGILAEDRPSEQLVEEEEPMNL", "test": "In vitro HDAC7 inhibition, fluorogenic peptide assay", "assay_type": "biochemical", "settings": "for IC50: read-out: IC50 (nM) of enzyme activity HDAC7", "procedure": "(§1) All HDAC assays were performed using acetylated AMC-labeled peptide substrate: • Substrate for isoforms HDAC1, 2, 3, 4, 5, 6, 7, 9, 10, 11 and HeLa nuclear extract assays: Acetylated fluorogenic peptide from p53 residues 379-382 (RHKKAc) (BioMol. Cat. # KI-104). • Substrate for HDAC8 assays: Acetylated fluorogenic peptide from p53 residues 379-382 (RHKAcKAc) (BioMol. Cat. # KI-178).\n(§2) Enzymes: • HDAC1 assay: 75 nM Human HDAC1 (GenBank Accession No. NM_004964): Full length with C-terminal GST tag, MW=79.9 kDa, expressed by baculovirus expression system in Sf9 cells (BioMol. Cat. # SE-456). • HDAC2 assay: 5 nM Human HDAC2 (GenBank Accession No. Q92769): Full length with C-terminal His tag, MW=60 kDa, expressed by baculovirus expression system in Sf9 cells (BioMol. Cat. # SE-500). • HDAC3 assay: 2.3 nM Human HDAC3/NcoR2 (GenBank Accession No. NM_003883 for HDAC3, GenBank Accession No.NM_006312 for NcoR2): Complex of human HDAC3, full length with C-terminal His tag, MW=49.7 kDa, and human NCOR2, N-terminal GST tag, MW=39 kDa, co-expressed in baculovirus expression system (BioMol. Cat. # SE-507). • HDAC4 assay: 266 nM Human HDAC4 (GenBank Accession No. NM_006037): Amino acids 627-1085 with N-terminal GST tag, MW=75.2 kDa, expressed in baculovirus expression system (BioMol, Hamburg, Germany). • HDAC5 assay: 588 nM Human HDAC5 (GenBank Accession No. NM_001015053): Full length with Nterminal GST tag, MW=150 kDa, expressed by baculovirus expression system in Sf9 cells (BioMol, Hamburg, Germany). • HDAC6 assay: 13 nM Human HDAC6 (GenBank Accession No. BC069243): Full length with N-terminal GST tag, MW=159 kDa, expressed by baculovirus expression system in Sf9 cells (BioMol. Cat. # SE-508). • HDAC7 assay: 962 nM Human HDAC7 (GenBank Accession No. AY302468): Amino acids 518-end with N-terminal GST tag, MW=78 kDa, expressed in baculovirus expression system (BioMol, Hamburg, Germany). • HDAC8 assay: 119 nM Human HDAC8 (GenBank Accession No. NM018486): Full length, MW=42 kDa, expressed in an E. coli expression system (BioMol. […]\n(§3) The reactions were carried out in a 96-well microplate for fluorometry in a 50 μl reaction volume. […] The reaction was allowed to develop for 45 minutes at 30° C. with 5% CO2; then the fluorescent signal was measured with an excitation wavelength at 360 nm and an emission wavelength at 460 nm in a microplate-reading fluorometer (GeminiXS; Molecular Devices, Sunnyvale, Calif.). […] IC50 was calculated by fitting the experimental data to a dose-response curve. […]"}, "Human HDAC11": {"biological_target": "T2, Human HDAC11 (Homo sapiens, UniProt Q96DB2)", "T2 construct": "GST (N); purchased BioMol SE-560", "T2 sequence (Q96DB2 1-347)": "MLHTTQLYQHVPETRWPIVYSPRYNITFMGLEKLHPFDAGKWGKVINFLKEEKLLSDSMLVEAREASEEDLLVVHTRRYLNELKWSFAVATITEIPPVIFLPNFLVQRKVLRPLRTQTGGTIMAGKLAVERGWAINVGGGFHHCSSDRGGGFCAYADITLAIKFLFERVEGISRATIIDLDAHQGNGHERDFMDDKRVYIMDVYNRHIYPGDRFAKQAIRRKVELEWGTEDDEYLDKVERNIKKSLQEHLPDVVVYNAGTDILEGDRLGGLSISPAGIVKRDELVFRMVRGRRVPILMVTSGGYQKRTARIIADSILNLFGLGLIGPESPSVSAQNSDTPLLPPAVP", "test": "In vitro HDAC11 inhibition, fluorogenic peptide assay", "assay_type": "biochemical", "settings": "for IC50: read-out: IC50 (nM) of enzyme activity HDAC11", "procedure": "as §1, §2, §3"}},
  "data": [
    {"molecule": "COc1ccc(-c2cc(-c3ccccc3)[nH]c2C(=O)NCCCCCC(=O)NO)cc1", "note": "[Compound A, N-[6-(hydroxyamino)-6-oxohexyl]-3-(4-methoxyphenyl)-5-phenyl-1H-pyrrole-2-carboxamide, reference compound]", "values": [
      {"measurement": "Selectivity against HDAC6 (IC50 HDACx/IC50 HDAC6) HDAC7", "setting": "Human HDAC7; IC50 HDAC7/IC50 HDAC6", "result": 70.3},
      {"measurement": "IC50", "setting": "Human HDAC7", "result": 1410, "unit": "nM"},
      {"measurement": "Selectivity against HDAC6 (IC50 HDACx/IC50 HDAC6) HDAC11", "setting": "Human HDAC11; IC50 HDAC11/IC50 HDAC6", "result": 34},
      {"measurement": "IC50", "setting": "Human HDAC11", "result": 680, "unit": "nM"}
    ]},
    {"molecule": "O=C(CCCCCNC(=O)c1[nH]c(-c2ccc(O)cc2)cc1-c1ccsc1)NO", "note": "[Example 6, N-(5-(hydroxycarbamoyl)pentyl)-5-(4-hydroxyphenyl)-3-(3-thienyl)-1H-pyrrole-2-carboxamide]", "values": [
      {"measurement": "IC50", "setting": "Human HDAC7", "result": 318, "unit": "nM"},
      {"measurement": "IC50", "setting": "Human HDAC11", "result": 55, "unit": "nM"}
    ]},
    {"molecule": "O=C(CCCCCNC(=O)c1[nH]c(-c2ccc(O)cc2)cc1-c1ccoc1)NO", "note": "[Example 5, 3-(3-furyl)-N-(5-(hydroxycarbamoyl)pentyl)-5-(4-hydroxy-phenyl)-1H-pyrrole-2-carboxamide]", "values": [
      {"measurement": "IC50", "setting": "Human HDAC7", "result": 72, "unit": "nM"},
      {"measurement": "IC50", "setting": "Human HDAC11", "result": 18, "unit": "nM"}
    ]}
  ]
}
